Read-outs that look alike come from different tables or passages of the source.
How the values were obtained:
[1] = design: method as in Taylor et al. [2018]; conditions: oral solution of CBD, healthy adults, ref Taylor et al. [2018], cited from earlier work
[2] = system: bone marrow or liver of rats; design: method as in European Medicine Agency (EMA) ([2019]); conditions: bone marrow or liver of rats after CBD treatment; ref European Medicine Agency (EMA) ([2019]); cited from earlier work
[3] = system: human gastric cancer, Sertoli and Leydig cells; design: method as in Zhang et al. [2019]; Li et al. [2022], [2023]; conditions: 24 h of treatment; upregulated p53, reduced CDK2 and cyclin E; ref Zhang et al. [2019]; Li et al. [2022], [2023]; cited from earlier work
[4] = system: human lymphoblastoid TK6 cells; assay: Cytokinesis-block micronucleus (CBMN) assay

For `C=C(C)[C@@H]1CCC(C)=C[C@H]1c1c(O)cc(CCCCC)cc1O` [CBD, cannabidiol], the “Mean plasma Cmax following a high-fat meal” value ([1]; high-fat meal) is listed as 1628 ng/mL, the Cmax ([1]; high-fat meal, read-out: Mean plasma Cmax following a high-fat meal) is listed as 5.2 µM and the “Mean plasma Cmax” value [1] is listed as 335.4 ng/mL. The Cmax ([1]; read-out: Mean plasma Cmax) was 1.1 µM, the “Micronucleus and comet assay in vivo” value [2] was “negative results” and the Cell cycle effect [3] was “G1 phase cell cycle arrest”. The “BMDL (10th percentile)” value ([4]; 10th percentile of BMD50 estimation, 4 h, micronucleus data) was 2.1 µM, the “4 h BMD50” value ([4]; 50% increased relative genotoxicity vs controls, from micronucleus data, 4 h treatment, without S9, Bayesian BMD analysis) was 8.7 µM and the “BMDU (90th percentile)” value ([4]; 90th percentile of BMD50 estimation, 4 h, micronucleus data) was 21.1 µM. For the same compound, the “Number of micronuclei with S9 mix vs without” value ([4]; 4 h, CBG 30 µM, CBD 15 µM, CBC 15 µM, CBDV 40 µM, CBN 15 µM, 0.25% S9 mix) was “significant reduction in the number of micronuclei” and the Micronucleus induction ([4]; 4 h treatment, without metabolic activation, at least one concentration, vs solvent control) was “significant induction of micronuclei”.
